“And” between values parts separate entries of the source, which are not always exact repeats. Equal values may be shown once.
Test system: 883617-216-R-J1-PDC complex spheroids, growth, % test/control
Assay: Anticancer human tumor 883617-216-R-J1-PDC patient-derived bladder carcinoma cell line growth inhibition [AhR]
Conditions: for viability, T/C: stronger effect = lower value
How it was run: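 Spheroids combined tumor cells with HUVEC endothelial cells and human MSCs as stroma. AhR antagonists were paired with standard or investigational drugs, each dosed in half-log steps down from near clinical Cmax, or from 10 microM where Cmax was unknown.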

[1] = curve of first compound, second compound 0.1 µM
[2] = curve of first compound, second compound 0.316 µM
[3] = curve of first compound, second compound 1 µM
[4] = curve of first compound, second compound 3.16 µM
[5] = curve of first compound, second compound 10 µM
[6] = second compound 0.1 µM, first compound 0.0316 µM
[7] = second compound 0.1 µM, first compound 0.1 µM
[8] = second compound 0.1 µM, first compound 0.316 µM
[9] = second compound 0.1 µM, first compound 1 µM
[10] = second compound 0.1 µM, first compound 3.16 µM
[11] = second compound 0.1 µM, first compound 10 µM
[12] = second compound 0.316 µM, first compound 0.0316 µM
[13] = second compound 0.316 µM, first compound 0.1 µM
[14] = second compound 0.316 µM, first compound 0.316 µM
[15] = second compound 0.316 µM, first compound 1 µM
[16] = second compound 0.316 µM, first compound 3.16 µM
[17] = second compound 0.316 µM, first compound 10 µM
[18] = second compound 1 µM, first compound 0.0316 µM
[19] = second compound 1 µM, first compound 0.1 µM
[20] = second compound 1 µM, first compound 0.316 µM
[21] = second compound 1 µM, first compound 1 µM
[22] = second compound 1 µM, first compound 3.16 µM
[23] = second compound 1 µM, first compound 10 µM
[24] = second compound 3.16 µM, first compound 0.0316 µM
[25] = second compound 3.16 µM, first compound 0.1 µM
[26] = second compound 3.16 µM, first compound 0.316 µM
[27] = second compound 3.16 µM, first compound 1 µM
[28] = second compound 3.16 µM, first compound 3.16 µM
[29] = second compound 3.16 µM, first compound 10 µM
[30] = second compound 10 µM, first compound 0.0316 µM
[31] = second compound 10 µM, first compound 0.1 µM
[32] = second compound 10 µM, first compound 0.316 µM
[33] = second compound 10 µM, first compound 1 µM
[34] = second compound 10 µM, first compound 3.16 µM
[35] = second compound 10 µM, first compound 10 µM
[36] = second compound 0.1 µM, first compound 0.00316 µM
[37] = second compound 0.1 µM, first compound 0.01 µM
[38] = second compound 0.316 µM, first compound 0.00316 µM
[39] = second compound 0.316 µM, first compound 0.01 µM
[40] = second compound 1 µM, first compound 0.00316 µM
[41] = second compound 1 µM, first compound 0.01 µM
[42] = second compound 3.16 µM, first compound 0.00316 µM
[43] = second compound 3.16 µM, first compound 0.01 µM
[44] = second compound 10 µM, first compound 0.00316 µM
[45] = second compound 10 µM, first compound 0.01 µM
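Further: exposure lasted 7 days after dosing on day 3 of spheroid growth.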

SMILES | IC50 [1] | IC50 [2] | IC50 [3] | IC50 [4] | IC50 [5] | viability, T/C [6] | viability, T/C [7] | viability, T/C [8] | viability, T/C [9] | viability, T/C [12] | viability, T/C [13] | viability, T/C [14] | viability, T/C [15] | viability, T/C [18] | viability, T/C [19] | viability, T/C [20] | viability, T/C [24] | viability, T/C [25] | viability, T/C [30] | viability, T/C [31] | other results
COc1cc(Nc2ncc3c(n2)-c2ccc(Cl)cc2C(c2c(F)cccc2OC)=NC3)ccc1C(=O)O + Cc1cncc(-c2nc(NCCc3c[nH]c4ccccc34)c3ncn(C(C)C)c3n2)c1 | > 10 µM | > 10 µM | > 10 µM | > 10 µM | > 10 µM | 83.8% | 86.9% | 81.7% | 72.5% | 86.3% | 83.1% | 81.7% | 72.2% | 91.8% | 88.6% | 75.3% | 92.2% | 98% | 54.4% | 55% | viability, T/C [10]: 73.8%; viability, T/C [11]: 61.5%; viability, T/C [16]: 73.6%; viability, T/C [17]: 65.5%; viability, T/C [21]: 82.8%; viability, T/C [22]: 80%; viability, T/C [23]: 70.8%; viability, T/C [26]: 102%; viability, T/C [27]: 81.8%; viability, T/C [28]: 81.2%; viability, T/C [29]: 72.7%; viability, T/C [32]: 53.1%; viability, T/C [33]: 51.4%; viability, T/C [34]: 56.4%; viability, T/C [35]: 71.2%
COc1ccc([C@@H](O)c2cc(-c3ncnc4cc(N5CCOCC5)ccc34)c(F)cc2Cl)nn1 + CC(CO)NC(=O)c1cc(-c2ccc(Cl)cc2)nn(-c2cnn(C)c2)c1=O | 9.07 µM | 8.4 µM | 10 µM | 10 µM | 3.52 µM | 83% | 94.7% | 76.8% | 75.9% | 69.9% | 128% | 83.1% | 63.9% | 86.4% | 99.7% | 55.9% | 64.8% | 135% | 119% | 81.7% | viability, T/C [10]: 60.1%; viability, T/C [11]: 49.1%; viability, T/C [16]: 124%; viability, T/C [17]: 42.2%; viability, T/C [21]: 58.9%; viability, T/C [22]: 61.4%; viability, T/C [23]: 42.1%; viability, T/C [26]: 73.6%; viability, T/C [27]: 61.7%; viability, T/C [28]: 37.1%; viability, T/C [29]: 51.6%; viability, T/C [32]: 88.7%; viability, T/C [33]: 73.4%; viability, T/C [34]: 51.1%; viability, T/C [35]: 32.4%
Nc1ccccc1NC(=O)c1ccc(CNC(=O)OCc2cccnc2)cc1 + Cc1cncc(-c2nc(NCCc3c[nH]c4ccccc34)c3ncn(C(C)C)c3n2)c1 | 0.607 µM | 0.664 µM | 0.834 µM | 1.04 µM | < 0.0316 µM | 81.2% | 78.8% | 66.7% | 37% | 88.1% | 79.7% | 68.5% | 40.1% | 96.6% | 93.7% | 77.8% | 109% | 105% | 41.6% | 42.5% | viability, T/C [10]: 11.3%; viability, T/C [11]: 1.5%; viability, T/C [16]: 14.4%; viability, T/C [17]: 0.94%; viability, T/C [21]: 44.6%; viability, T/C [22]: 14.1%; viability, T/C [23]: 0.83%; viability, T/C [26]: 83.2%; viability, T/C [27]: 51.1%; viability, T/C [28]: 18.9%; viability, T/C [29]: 0.37%; viability, T/C [32]: 35.8%; viability, T/C [33]: 21.3%; viability, T/C [34]: 11.1%; viability, T/C [35]: 0.35%
Nc1ccn(C2OC(CO)C(O)C2(F)F)c(=O)n1 (centres undefined) + Cc1ccccc1N=Nc1ccc(NC(=O)c2ccnn2C)c(C)c1 | < 0.0316 µM | < 0.0316 µM | < 0.0316 µM | < 0.0316 µM | < 0.0316 µM | 27.8% | 26.8% | 35.4% | 32.4% | 25.1% | 26.1% | 32.5% | 33.5% | 28.6% | 22.8% | 31.5% | 26.1% | 22.3% | 36.3% | 27.8% | viability, T/C [10]: 30.2%; viability, T/C [11]: 32.2%; viability, T/C [16]: 35.2%; viability, T/C [17]: 37.5%; viability, T/C [21]: 36%; viability, T/C [22]: 34.2%; viability, T/C [23]: 31.7%; viability, T/C [26]: 31%; viability, T/C [27]: 31.3%; viability, T/C [28]: 37.3%; viability, T/C [29]: 32.4%; viability, T/C [32]: 29.4%; viability, T/C [33]: 34.5%; viability, T/C [34]: 31.1%; viability, T/C [35]: 32.4%
CC(C)c1c(-c2ccccc2)nc2c(C#N)c[nH]n2c1=O |  |  |  |  |  |  |  |  |  |  |  |  |  |  |  |  |  |  |  |  | viability, T/C (compound 0.0316 µM): 101% and 93.4% and 95%; viability, T/C (compound 0.1 µM): 107% and 97.3% and 110%; viability, T/C (compound 0.316 µM): 109% and 96% and 82.6%; viability, T/C (compound 1 µM): 98.6% and 98% and 68.8%; viability, T/C (compound 3.16 µM): 110% and 100% and 82.2%; viability, T/C (compound 10 µM): 105% and 102% and 77.7%; IC50 (curve of compound): > 10 µM
CC1COCCN1c1cc(-c2ccnn2C)c2ccnc(-c3ccn[nH]3)c2n1 (centres undefined) + CC(CO)NC(=O)c1cc(-c2ccc(Cl)cc2)nn(-c2cnn(C)c2)c1=O | > 1 µM | > 1 µM | > 1 µM | > 1 µM | > 1 µM | 55.6% | 87.4% | 73.9% | 56.8% | 88.2% | 63.8% | 48.5% | 53.1% | 114% | 100% | 53.5% | 72.8% | 73.2% | 72.8% | 53.8% | viability, T/C [36]: 70.5%; viability, T/C [37]: 80.7%; viability, T/C [38]: 80.9%; viability, T/C [39]: 85.6%; viability, T/C [40]: 88.8%; viability, T/C [41]: 82.5%; viability, T/C [21]: 54%; viability, T/C [42]: 58.3%; viability, T/C [43]: 69.8%; viability, T/C [26]: 61.7%; viability, T/C [27]: 53.2%; viability, T/C [44]: 65.8%; viability, T/C [45]: 64.2%; viability, T/C [32]: 54.4%; viability, T/C [33]: 72%
COc1cc(C2c3cc4c(cc3C(OC3OC5COC(C)OC5C(O)C3O)C3COC(=O)C23)OCO4)cc(OC)c1O (centres undefined) |  |  |  |  |  |  |  |  |  |  |  |  |  |  |  |  |  |  |  |  | viability, T/C (compound 0.0316 µM): 91.8% and 80.6% and 110%; viability, T/C (compound 0.1 µM): 107% and 89.4% and 97.1%; viability, T/C (compound 0.316 µM): 75.1% and 76.3% and 79.2%; viability, T/C (compound 1 µM): 63.8% and 88.8% and 74%; viability, T/C (compound 3.16 µM): 69.7% and 85.2% and 68.1%; viability, T/C (compound 10 µM): 59.4% and 84.4% and 59.1%; IC50 (curve of compound): > 10 µM
CC[C@@]1(O)C(=O)OCc2c1cc1n(c2=O)Cc2cc3c(CN(C)C)c(O)ccc3nc2-1 + CC(CO)NC(=O)c1cc(-c2ccc(Cl)cc2)nn(-c2cnn(C)c2)c1=O | > 0.1 µM | > 0.1 µM | > 0.1 µM | > 0.1 µM | > 0.1 µM | 82.2% | 78.4% |  |  | 117% | 118% |  |  | 62% | 97% |  | 95.5% | 70.5% | 113% | 112% | viability, T/C (second compound 0.1 µM, first compound 0.000316 µM): 66.5%; viability, T/C (second compound 0.1 µM, first compound 0.001 µM): 93.5%; viability, T/C [36]: 102%; viability, T/C [37]: 52.4%; viability, T/C (second compound 0.316 µM, first compound 0.000316 µM): 87.9%; viability, T/C (second compound 0.316 µM, first compound 0.001 µM): 100%; viability, T/C [38]: 103%; viability, T/C [39]: 104%; viability, T/C (second compound 1 µM, first compound 0.000316 µM): 81.3%; viability, T/C (second compound 1 µM, first compound 0.001 µM): 78%; viability, T/C [40]: 107%; viability, T/C [41]: 58.3%; viability, T/C (second compound 3.16 µM, first compound 0.000316 µM): 73.7%; viability, T/C (second compound 3.16 µM, first compound 0.001 µM): 104%; viability, T/C [42]: 63.6%; viability, T/C [43]: 81.9%; viability, T/C (second compound 10 µM, first compound 0.000316 µM): 88.1%; viability, T/C (second compound 10 µM, first compound 0.001 µM): 95%; viability, T/C [44]: 80.5%; viability, T/C [45]: 66.4%
